Data: patent publication US8124566B2 (priority 2004, dated 2012)
Values joined by “and” are separate entries in the source; they are usually repeats but may differ in a detail not shown here. Equal entries are not always repeated. Where two headings read alike, the source gives them in different places.

Experiments:
Type in all cases: cell-based
Conditions in all cases: active ingredient alone
Leptosphaeria nodorum = experiment: Fungal growth assay, Leptosphaeria nodorum (Example B-8)
Venturia inaequalis = experiment: Fungal growth assay, Venturia inaequalis (Example B-6 a)
Pythium ultimum = experiment: Fungal growth assay, Pythium ultimum (Example B-7)
Botrytis cinerea = experiment: Fungal growth assay, Botrytis cinerea (Example B-1 a)
Pyrenophora teres = experiment: Fungal growth assay, Pyrenophora teres (Example B-5 a)
Pyricularia oryzae = system: Pyricularia oryzae
Alternaria solani = experiment: Fungal growth assay, Alternaria solani (Example B-4 a)
Septoria tritici = experiment: Fungal growth assay, Septoria tritici (Example B-2 a)

Question: With `CC(C)C1C2CCC1c1c(NC(=O)c3cn(C)nc3C(F)F)cccc12` (racemic) [Cpd Ic] as the compound, how does the “Observed control in % (% Cobs)” value (Leptosphaeria nodorum; 0.0222 ppm [mg/L]) read?
Answer: 0%

Question: What about the “Observed control in % (% Cobs)” value (Leptosphaeria nodorum; 0.0667 ppm [mg/L]) of the same compound?
Answer: 0%

Question: And the “Observed control in % (% Cobs)” value (Leptosphaeria nodorum; 0.2000 ppm [mg/L])?
Answer: 0%

Question: And the “Observed control in % (% Cobs)” value (Venturia inaequalis; 0.0222 ppm [mg/L])?
Answer: 6% and 10%

Question: What about the “Observed control in % (% Cobs)” value (Venturia inaequalis; 0.0667 ppm [mg/L]) of the same compound?
Answer: 18%

Question: And the “Observed control in % (% Cobs)” value (Venturia inaequalis; 0.2000 ppm [mg/L])?
Answer: 59%

Question: What about the “Observed control in % (% Cobs)” value (Pythium ultimum; 0.0667 ppm [mg/L]) of the same compound?
Answer: 0%

Question: What about the “Observed control in % (% Cobs)” value (Pythium ultimum; 0.2000 ppm [mg/L]) of the same compound?
Answer: 0%

Question: What about the “Observed control in % (% Cobs)” value (Pythium ultimum; 0.6000 ppm [mg/L]) of the same compound?
Answer: 0%

Question: What about the “Observed control in % (% Cobs)” value (Botrytis cinerea; 0.0025 ppm [mg/L]) of the same compound?
Answer: 0%

Question: What about the “Observed control in % (% Cobs)” value (Botrytis cinerea; 0.0074 ppm [mg/L]) of the same compound?
Answer: 10%

Question: And the “Observed control in % (% Cobs)” value (Botrytis cinerea; 0.0222 ppm [mg/L])?
Answer: 23% and 18% and 12%

Question: And the “Observed control in % (% Cobs)” value (Botrytis cinerea; 0.0667 ppm [mg/L])?
Answer: 35% and 28%

Question: What about the “Observed control in % (% Cobs)” value (Botrytis cinerea; 0.2000 ppm [mg/L]) of the same compound?
Answer: 71%

Question: And the “Observed control in % (% Cobs)” value (Pyrenophora teres; 0.0667 ppm [mg/L])?
Answer: 37%

Question: And the “Observed control in % (% Cobs)” value (Pyrenophora teres; 0.2000 ppm [mg/L])?
Answer: 55%

Question: What about the “Observed control in % (% Cobs)” value (Pyricularia oryzae; 0.0001 ppm [mg/L]) of the same compound?
Answer: 2%

Question: And the “Observed control in % (% Cobs)” value (Pyricularia oryzae; 0.0008 ppm [mg/L])?
Answer: 3%

Question: What about the “Observed control in % (% Cobs)” value (Pyricularia oryzae; 0.0025 ppm [mg/L]) of the same compound?
Answer: 13% and 6%

Question: What about the “Observed control in % (% Cobs)” value (Pyricularia oryzae; 0.0074 ppm [mg/L]) of the same compound?
Answer: 33%

Question: What about the “Observed control in % (% Cobs)” value (Pyricularia oryzae; 0.0222 ppm [mg/L]) of the same compound?
Answer: 59%

Question: What about the “Observed control in % (% Cobs)” value (Alternaria solani; 0.0025 ppm [mg/L]) of the same compound?
Answer: 8%

Question: What about the “Observed control in % (% Cobs)” value (Alternaria solani; 0.0074 ppm [mg/L]) of the same compound?
Answer: 27%

Question: And the “Observed control in % (% Cobs)” value (Septoria tritici; 0.0001 ppm [mg/L])?
Answer: 1%

Question: And the “Observed control in % (% Cobs)” value (Septoria tritici; 0.0008 ppm [mg/L])?
Answer: 13%

Question: For `Fc1ccc([C@]2(Cn3cncn3)O[C@H]2c2ccccc2Cl)cc1` (racemic) [Epoxiconazole], which “Observed control in % (% Cobs)” value (Leptosphaeria nodorum; 0.0025 ppm [mg/L]) is on record?
Answer: 9%

Question: What about the “Observed control in % (% Cobs)” value (Leptosphaeria nodorum; 0.0222 ppm [mg/L]) of the same compound?
Answer: 39%

Question: What does the source list for `CO/C=C(/C(=O)OC)c1ccccc1Oc1cc(Oc2ccccc2C#N)ncn1` [Azoxystrobin]?
Answer: Observed control in % (% Cobs) (Botrytis cinerea; 0.60 ppm [mg/L]): 7%; Observed control in % (% Cobs) (Botrytis cinerea; 1.80 ppm [mg/L]): 14%

Question: With `N#Cc1c(Cl)c(Cl)c(Cl)c(C#N)c1Cl` [Chlorothalonil] as the compound, how does the “Observed control in % (% Cobs)” value (Pyricularia oryzae; 0.002 ppm [mg/L]) read?
Answer: 0%

Question: And the “Observed control in % (% Cobs)” value (Pyricularia oryzae; 0.007 ppm [mg/L])?
Answer: 0%

Question: What about the “Observed control in % (% Cobs)” value (Pyricularia oryzae; 0.067 ppm [mg/L]) of the same compound?
Answer: 0%

Question: Which results are given for `CC1CCN(c2c(-c3c(F)cc(F)cc3F)c(Cl)nc3ncnn23)CC1` [Cpd B-1]?
Answer: Observed control in % (% Cobs) (Venturia inaequalis; 0.0008 ppm [mg/L]): 17%; Observed control in % (% Cobs) (Venturia inaequalis; 0.0025 ppm [mg/L]): 32%; Observed control in % (% Cobs) (Venturia inaequalis; 0.0074 ppm [mg/L]): 61%

Question: With `C#CCOc1ccc(CCNC(=O)C(OCC#C)c2ccc(Cl)cc2)cc1OC` (stereo not drawn) [Cpd F-1] as the compound, how does the “Observed control in % (% Cobs)” value (Pyrenophora teres; 5.4 ppm [mg/L]) read?
Answer: 2%

Question: What about the “Observed control in % (% Cobs)” value (Pyrenophora teres; 16.2 ppm [mg/L]) of the same compound?
Answer: 6%

Question: `CC(C1CC1)C(O)(Cn1cncn1)c1ccc(Cl)cc1` (stereo not drawn) [Cyproconazole] was tested. Which “Observed control in % (% Cobs)” value (Pyricularia oryzae; 0.022 ppm [mg/L]) did it give?
Answer: 0%

Question: What about the “Observed control in % (% Cobs)” value (Pyricularia oryzae; 0.200 ppm [mg/L]) of the same compound?
Answer: 0%

Question: Which results are given for `Cc1cc(C2CC2)nc(Nc2ccccc2)n1` [Cyprodinil]?
Answer: Observed control in % (% Cobs) (Pyricularia oryzae; 0.002 ppm [mg/L]): 0%; Observed control in % (% Cobs) (Pyricularia oryzae; 0.007 ppm [mg/L]): 0%; Observed control in % (% Cobs) (Pyricularia oryzae; 0.067 ppm [mg/L]): 0%

Question: For `CC1COC(Cn2cncn2)(c2ccc(Oc3ccc(Cl)cc3)cc2Cl)O1` (stereo not drawn) [Difenoconazole], which “Observed control in % (% Cobs)” value (Leptosphaeria nodorum; 0.0008 ppm [mg/L]) is on record?
Answer: 5%

Question: And the “Observed control in % (% Cobs)” value (Leptosphaeria nodorum; 0.0025 ppm [mg/L])?
Answer: 16%

Question: And the “Observed control in % (% Cobs)” value (Leptosphaeria nodorum; 0.0074 ppm [mg/L])?
Answer: 73%

Question: Which results are given for `CC(Cc1ccc(C(C)(C)C)cc1)CN1CCCCC1` (stereo not drawn) [Fenpropidin]?
Answer: Observed control in % (% Cobs) (Pythium ultimum; 5.4000 ppm [mg/L]): 11%; Observed control in % (% Cobs) (Pythium ultimum; 16.2000 ppm [mg/L]): 34%

Question: How did the “Observed control in % (% Cobs)” value (Venturia inaequalis; 0.0025 ppm [mg/L]) turn out when `CC(Cc1ccc(C(C)(C)C)cc1)CN1C[C@@H](C)O[C@@H](C)C1` (stereo partly drawn) [Fenpropimorph] was run?
Answer: 0%

Question: And the “Observed control in % (% Cobs)” value (Venturia inaequalis; 0.0222 ppm [mg/L])?
Answer: 33%

Question: For `N#Cc1c[nH]cc1-c1cccc2c1OC(F)(F)O2` [Fludioxonil], which “Observed control in % (% Cobs)” value (Alternaria solani; 0.022 ppm [mg/L]) is on record?
Answer: 1%

Question: What about the “Observed control in % (% Cobs)” value (Alternaria solani; 0.067 ppm [mg/L]) of the same compound?
Answer: 24%

Question: How did the “Observed control in % (% Cobs)” value (Botrytis cinerea; 0.0222 ppm [mg/L]) turn out when `CO/C=C(/C(=O)OC)c1ccccc1COc1cccc(C(F)(F)F)n1` [Picoxystrobin] was run?
Answer: 0%

Question: What about the “Observed control in % (% Cobs)” value (Botrytis cinerea; 0.0667 ppm [mg/L]) of the same compound?
Answer: 6%

Question: What about the “Observed control in % (% Cobs)” value (Botrytis cinerea; 0.2000 ppm [mg/L]) of the same compound?
Answer: 12%

Question: And the “Observed control in % (% Cobs)” value (Botrytis cinerea; 0.6000 ppm [mg/L])?
Answer: 20%

Question: Which “Observed control in % (% Cobs)” value (Septoria tritici; 0.007 ppm [mg/L]) does the source give for `CCCC1COC(Cn2cncn2)(c2ccc(Cl)cc2Cl)O1` (stereo not drawn) [Propiconazole] here?
Answer: 0%

Question: What about the “Observed control in % (% Cobs)” value (Septoria tritici; 0.067 ppm [mg/L]) of the same compound?
Answer: 7%

Question: Which results are given for `OC(Cc1ccccc1Cl)(Cn1nc[nH]c1=S)C1(Cl)CC1` (stereo not drawn) [Prothioconazole]?
Answer: Observed control in % (% Cobs) (Botrytis cinerea; 0.0222 ppm [mg/L]): 8%; Observed control in % (% Cobs) (Botrytis cinerea; 0.0667 ppm [mg/L]): 17%; Observed control in % (% Cobs) (Botrytis cinerea; 0.2000 ppm [mg/L]): 52%
